From US20170087174A1, “COMBINATION THERAPY REGIMEN FOR TREATMENT OF HCV” (JANSSEN PHARMACEUTICALS, INC., priority 2015, published 2017)
Where two headings read alike, the source gives them in different places.

What was measured:
P-gp = P-gp (Homo sapiens, UniProt P08183); details: in vitro; cited from earlier work
BCRP = target: T1, BCRP (Homo sapiens, UniProt Q9UNQ0); details: in vitro; cited from earlier work
T1 sequence (Q9UNQ0 1-655): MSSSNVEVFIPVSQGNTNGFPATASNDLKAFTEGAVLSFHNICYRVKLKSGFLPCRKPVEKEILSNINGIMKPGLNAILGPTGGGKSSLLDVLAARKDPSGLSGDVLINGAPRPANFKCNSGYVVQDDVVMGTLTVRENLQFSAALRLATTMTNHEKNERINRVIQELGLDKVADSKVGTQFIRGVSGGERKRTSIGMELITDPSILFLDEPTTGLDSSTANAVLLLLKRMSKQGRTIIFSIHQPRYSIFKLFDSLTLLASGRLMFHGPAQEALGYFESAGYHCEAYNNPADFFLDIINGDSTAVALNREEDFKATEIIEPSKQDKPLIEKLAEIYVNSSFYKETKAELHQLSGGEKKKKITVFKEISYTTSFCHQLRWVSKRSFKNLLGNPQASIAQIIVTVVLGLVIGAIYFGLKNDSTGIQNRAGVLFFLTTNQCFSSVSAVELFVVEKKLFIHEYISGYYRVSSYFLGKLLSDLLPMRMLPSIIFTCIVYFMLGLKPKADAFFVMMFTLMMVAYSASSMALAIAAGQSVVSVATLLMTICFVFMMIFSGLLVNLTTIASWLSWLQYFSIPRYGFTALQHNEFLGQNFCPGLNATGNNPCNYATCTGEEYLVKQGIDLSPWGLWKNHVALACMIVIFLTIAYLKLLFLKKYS

[1] = PK of single agents vs fixed dose combinations (FDC), single oral dose in healthy volunteers; type: in vivo, human; details: for Cmax: read-out: Cmax (mean ± SD); for AUC(0-t): read-out: AUClast (mean ± SD); for AUC(0-inf): read-out: AUC∞ (mean ± SD)
Protocol: SMV (100 mg), ODV (50 mg), and Compound (III) (800 mg) were administered as three different formulations or together as single doses in vivo to healthy volunteers. The arms of the study included: • Arm 1 (Reference Arm): Single oral doses of single agents, one SMV 100-mg capsule, one ODV 50-mg tablet as granule layered solid dispersion with copovidone and poloxamers, and two Compound (III) 400-mg tablets, administered together. • Arm 2: Single oral dose of fixed dose combination (FDC02): SMV 100 mg+ODV 50 mg as a spray dried solid dispersion with HPMC-AS L in a ratio ODV/HPMC-AS L 1/1 w/w+Compound (III) 800 mg • Arm 3: Single oral dose of fixed dose combination (FDC04): SMV 100 mg+ODV 50 mg as a spray dried solid dispersion with HPMC-AS L in a ratio ODV/HPMC-AS L 1/3 w/w+Compound (III) 800 mg • Arm 4: Single oral dose of fixed dose combination (FDC01): SMV 100 mg+ODV 50 mg as a spray dried solid dispersion with copovidone and poloxamers+Compound (III) 800 mg
PK parameters, including Cmax, tmax, AUClast, and AUC∞ were measured for Compound (III), ODV, SMV, and metabolites Compound A-I and Compound A-3 for each Arm of the study. Arms that included fixed dose combinations (FDC) (Arm 2, Arm 3, and Arm 4) were then compared to a single oral dose (Arm 1, the reference Arm). Table 9, Table 10, Table 11, Table 12 and Table 13 display relevant PK parameters and FIG. 9, FIG. 10, FIG. 11, FIG. 12, and FIG. 13 depict the plasma concentration over time of SMV, ODV, Compound A-1, and Compound A-3 for each Arm of the study.

[2] = Phase-1 drug-drug interaction study in healthy volunteers (Compound (III) 800 mg, SMV 150 mg, Odalasvir 150 mg loading then 50 mg, once daily): plasma PK; type: in vivo, human; details: both sexes, human, in vivo; for AUC0-24: read-out: AUC0-24; for Cmax: read-out: Cmax
Text: The following daily doses were employed:

OATP1B1 = target: T2, OATP1B1 (Homo sapiens, UniProt Q9Y6L6); details: in vitro; cited from earlier work
T2 sequence (Q9Y6L6 1-691): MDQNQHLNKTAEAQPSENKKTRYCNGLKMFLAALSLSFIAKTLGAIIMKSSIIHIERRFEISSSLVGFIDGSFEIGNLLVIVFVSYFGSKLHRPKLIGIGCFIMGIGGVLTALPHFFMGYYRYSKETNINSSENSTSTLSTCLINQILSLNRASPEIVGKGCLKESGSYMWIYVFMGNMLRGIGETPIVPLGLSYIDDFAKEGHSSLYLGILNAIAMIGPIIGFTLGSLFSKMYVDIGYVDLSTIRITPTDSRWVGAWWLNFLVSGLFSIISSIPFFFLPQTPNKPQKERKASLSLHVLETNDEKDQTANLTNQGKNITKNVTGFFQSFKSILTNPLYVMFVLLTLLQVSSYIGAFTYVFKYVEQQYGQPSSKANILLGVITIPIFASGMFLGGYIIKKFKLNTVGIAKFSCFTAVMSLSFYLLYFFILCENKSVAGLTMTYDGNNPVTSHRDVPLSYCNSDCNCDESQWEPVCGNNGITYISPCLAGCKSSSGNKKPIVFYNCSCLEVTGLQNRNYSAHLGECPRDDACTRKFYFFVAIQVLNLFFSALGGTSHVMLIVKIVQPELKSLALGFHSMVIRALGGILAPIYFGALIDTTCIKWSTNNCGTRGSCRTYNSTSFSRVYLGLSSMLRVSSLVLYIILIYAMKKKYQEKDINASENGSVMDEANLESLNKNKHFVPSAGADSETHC

[3] = test system: CYP (cytochrome P450 enzymes); experiment: CYP inhibition in vitro
[4] = Arm 2 (FDC02) vs reference (Arm 1)
[5] = Arm 3 (FDC04) vs reference (Arm 1)
[6] = Arm 4 (FDC01) vs reference (Arm 1)
[7] = human, in vivo, Arm 1 (reference): single agents together
[8] = Group 1, Day 3, Compound (III) alone
[9] = Group 1, Day 13 (Compound (III) + SMV)
[10] = Group 1, Day 23 (Compound (III) + SMV + ODV)
[11] = Group 2, Day 3 (Compound (III) alone)
[12] = Group 2, Day 13 (Compound (III) + SMV)
[13] = Group 2, Day 23 (Compound (III) + SMV + ODV)

P-gp, sequence (P08183 whole entry): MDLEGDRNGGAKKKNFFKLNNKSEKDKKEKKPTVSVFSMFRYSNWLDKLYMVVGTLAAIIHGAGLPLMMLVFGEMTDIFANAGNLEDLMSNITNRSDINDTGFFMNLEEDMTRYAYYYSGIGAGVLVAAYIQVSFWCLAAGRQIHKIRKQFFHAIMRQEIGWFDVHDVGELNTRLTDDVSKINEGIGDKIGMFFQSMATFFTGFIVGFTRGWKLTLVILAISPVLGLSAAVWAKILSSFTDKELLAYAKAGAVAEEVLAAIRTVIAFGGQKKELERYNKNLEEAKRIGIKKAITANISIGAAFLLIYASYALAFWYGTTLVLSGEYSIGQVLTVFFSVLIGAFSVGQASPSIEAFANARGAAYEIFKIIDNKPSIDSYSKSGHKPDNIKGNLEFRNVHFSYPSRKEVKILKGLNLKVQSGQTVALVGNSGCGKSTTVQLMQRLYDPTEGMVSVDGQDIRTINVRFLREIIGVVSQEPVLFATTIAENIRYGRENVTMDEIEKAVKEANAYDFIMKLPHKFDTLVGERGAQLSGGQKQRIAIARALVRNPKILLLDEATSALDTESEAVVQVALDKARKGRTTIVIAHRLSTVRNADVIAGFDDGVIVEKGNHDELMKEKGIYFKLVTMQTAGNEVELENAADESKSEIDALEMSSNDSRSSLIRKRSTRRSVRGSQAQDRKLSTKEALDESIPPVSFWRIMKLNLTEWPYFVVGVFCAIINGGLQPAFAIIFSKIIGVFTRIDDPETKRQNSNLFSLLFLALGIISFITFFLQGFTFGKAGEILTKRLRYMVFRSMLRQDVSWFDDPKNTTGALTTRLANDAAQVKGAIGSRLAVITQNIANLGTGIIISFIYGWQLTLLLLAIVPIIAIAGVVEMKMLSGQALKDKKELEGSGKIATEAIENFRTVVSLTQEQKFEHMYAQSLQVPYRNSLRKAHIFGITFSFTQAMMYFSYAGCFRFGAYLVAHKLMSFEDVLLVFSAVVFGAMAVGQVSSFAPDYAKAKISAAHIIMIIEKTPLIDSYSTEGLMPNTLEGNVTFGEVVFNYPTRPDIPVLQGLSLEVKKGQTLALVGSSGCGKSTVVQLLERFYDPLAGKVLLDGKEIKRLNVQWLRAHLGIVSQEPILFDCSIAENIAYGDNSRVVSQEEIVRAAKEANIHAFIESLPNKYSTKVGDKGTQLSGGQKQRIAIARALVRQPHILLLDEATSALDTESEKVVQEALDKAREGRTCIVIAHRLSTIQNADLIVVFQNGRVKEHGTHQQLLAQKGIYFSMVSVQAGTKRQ

Q: Which “P-gp inhibition (in words)” value (P-gp) does the source give for CC(C)OC(=O)[C@H](C)N[P@](=O)(OC[C@@]1(F)O[C@@H](n2ccc(=O)[nH]c2=O)[C@](C)(O)[C@@H]1O)Oc1ccccc1 [Compound (III), isopropyl ((S)-(((2S,3S,4R,5R)-5-(2,4-dioxo-3,4-dihydropyrimidin-1 (2H)-yl)-2-fluoro-3,4-dihydroxy-4-methyltetrahydrofuran-2-yl)methoxy)(phenoxy)phosphoryl)-L-alaninate] here?
A: no in vitro inhibition

Q: And the “BCRP inhibition (in words)” value (BCRP)?
A: no in vitro inhibition

Q: And the “t1/2term (mean ± SD)” value ([1]; Arm 1 (reference): single agents together)?
A: 36 ± 6 min

Q: What about the “Least Square Means Ratio, AUClast” value [1, 4] of the same molecule?
A: 110.22%

Q: What about the “Least Square Means Ratio, AUC∞” value [1, 4] of the same molecule?
A: 111.86%

Q: What about the “Least Square Means Ratio, Cmax” value [1, 4] of the same molecule?
A: 109.68%

Q: What about the “t1/2term (mean ± SD)” value ([1]; Arm 2: FDC02) of the same molecule?
A: 42 ± 12 min

Q: What about the “tmax (median [range])” value ([1]; Arm 2: FDC02) of the same molecule?
A: 2.00 (0.50-4.00) h

Q: What about the “Least Square Means Ratio, AUClast” value [1, 5] of the same molecule?
A: 127.06%

Q: And the “Least Square Means Ratio, AUC∞” value [1, 5]?
A: 138.97%

Q: And the “Least Square Means Ratio, Cmax” value [1, 5]?
A: 122.40%

Q: What about the “t1/2term (mean ± SD)” value ([1]; Arm 3: FDC04) of the same molecule?
A: 42 ± 6 min

Q: What about the “tmax (median [range])” value ([1]; Arm 3: FDC04) of the same molecule?
A: 2.00 (1.00-4.00) h

Q: What about the “Least Square Means Ratio, AUClast” value [1, 6] of the same molecule?
A: 151.72%

Q: What about the “Least Square Means Ratio, AUC∞” value [1, 6] of the same molecule?
A: 144.80%

Q: And the “Least Square Means Ratio, Cmax” value [1, 6]?
A: 145.56%

Q: What about the “t1/2term (mean ± SD)” value ([1]; Arm 4: FDC01) of the same molecule?
A: 36 ± 6 min

Q: What about the “tmax (median [range])” value ([1]; Arm 4: FDC01) of the same molecule?
A: 2.00 (1.00-4.00) h

Q: What about the Cmax ([1]; human, in vivo, Arm 1 (reference): single agents together, SMV 100-mg capsule, ODV 50-mg tablet, two Compound (III) 400-mg tablets) of the same molecule?
A: 484 ± 177 ng/mL

Q: And the AUC(0-t) [1, 7]?
A: 1160 ± 497 ng·h/mL

Q: What about the AUC(0-inf) [1, 7] of the same molecule?
A: 1180 ± 524 ng·h/mL

Q: What about the Tmax ([1]; human, in vivo, Arm 1 (reference): single agents together, read-out: tmax (median [range])) of the same molecule?
A: 120 min

Q: And the Cmax ([1]; human, in vivo, Arm 2: FDC02, SMV 100 mg + ODV 50 mg (ODV/HPMC-AS L 1/1 w/w) + Compound (III) 800 mg)?
A: 544 ± 225 ng/mL

Q: What about the AUC(0-t) ([1]; human, in vivo, Arm 2: FDC02) of the same molecule?
A: 1260 ± 411 ng·h/mL

Q: What about the AUC(0-inf) ([1]; human, in vivo, Arm 2: FDC02) of the same molecule?
A: 1300 ± 420 ng·h/mL

Q: And the Cmax ([1]; human, in vivo, Arm 3: FDC04, SMV 100 mg + ODV 50 mg (ODV/HPMC-AS L 1/3 w/w) + Compound (III) 800 mg)?
A: 617 ± 295 ng/mL

Q: What about the AUC(0-t) ([1]; human, in vivo, Arm 3: FDC04) of the same molecule?
A: 1440 ± 450 ng·h/mL

Q: And the AUC(0-inf) ([1]; human, in vivo, Arm 3: FDC04)?
A: 1580 ± 434 ng·h/mL

Q: What about the Cmax ([1]; human, in vivo, Arm 4: FDC01, SMV 100 mg + ODV 50 mg (copovidone and poloxamers) + Compound (III) 800 mg) of the same molecule?
A: 745 ± 381 ng/mL

Q: And the AUC(0-t) ([1]; human, in vivo, Arm 4: FDC01)?
A: 1830 ± 866 ng·h/mL

Q: And the AUC(0-inf) ([1]; human, in vivo, Arm 4: FDC01)?
A: 1790 ± 889 ng·h/mL

Q: And the AUC0-24 [2, 8]?
A: 292 ng·h/mL

Q: And the Cmax [2, 8]?
A: 162 ng/mL

Q: And the AUC0-24 [2, 9]?
A: 1000 ng·h/mL

Q: And the Cmax [2, 9]?
A: 376 ng/mL

Q: And the AUC0-24 [2, 10]?
A: 2090 ng·h/mL

Q: What about the Cmax [2, 10] of the same molecule?
A: 747 ng/mL

Q: And the AUC0-24 [2, 11]?
A: 325 ng·h/mL

Q: What about the Cmax [2, 11] of the same molecule?
A: 151 ng/mL

Q: And the AUC0-24 [2, 12]?
A: 1300 ng·h/mL

Q: What about the Cmax [2, 12] of the same molecule?
A: 516 ng/mL

Q: What about the AUC0-24 [2, 13] of the same molecule?
A: 2910 ng·h/mL

Q: And the Cmax [2, 13]?
A: 950 ng/mL

Q: And the “OATP1B1 inhibition (in words)” value (OATP1B1)?
A: no in vitro inhibition

Q: What about the IC50 [3] of the same molecule?
A: > 26 µM

Q: And the “CYP inhibition potential (in words)” value ([3]; on any CYP)?
A: limited CYP inhibition potential
